In PMC11211491, “Design of a covalent protein-protein interaction inhibitor of SRPKs to suppress angiogenesis and invasion of cancer cells” (Communications Chemistry, 2024):
Square brackets hold non-standard residues; d marks the D form. Peptide text beside a SMILES is read from it. * marks the point of attachment. Benzoyl(4-SO2F) = O=C(c1ccc(S(=O)(=O)F)cc1)*; Dap = NC[C@H](N)C(=O)O

Columns and labels:
A549 cells = experiment: Cellular uptake and endo/lysosomal escape (confocal microscopy); format: cell-based, human
Procedure: A549 cells (20 × 10^4 per well) were seeded into confocal dishes (SPL Life Sciences) and incubated for adhesion overnight at 37 °C in 5% CO2. 6-FAM-labeled C-DSB or control peptide was diluted to Opti-MEM medium (Gibco) and added to the cells for 24-h incubation. C-DBS was washed with PBS containing 20 U/mL heparin (Sigma-Aldrich) and stained with 40 μM Hoechst 33342 (Life Technologies) and 5 μg/mL Wheat Germ Agglutinin Alexa Fluor 647 Conjugate (Life Technologies) for 20 min. After removing excess dye, cell images were captured by the Leica TCS SP8 Confocal Microscope System. To detect the endo/lysosomal escape of C-DBS, 50 nM Lysotracker Red (Life Technologies) was used to stain the endo/lysosomes. Fluorescence intensity profiles of the region of interest (ROI) were analyzed using ImageJ software.

A549 = experiment: Cell viability assay (MTT); format: cell-based, human; settings: A549, up to 100 μM, 24 h
Procedure: (§1) Cells (6 × 10^3 per well) were seeded into a 96-well plate. After overnight incubation, cells were treated with different concentrations of C-DBS for 24 h. The viability of the cells was determined using 3-(4,5-dimethylthiazol-2-yl)-2,5-diphenyltetrazolium bromide (MTT) (Roche). Absorption at 570 nm was measured using a microplate reader (BMG, CLARIOstar) according to the manufacturer’s instructions.

HEK-293 = experiment: Cell viability assay (MTT); format: cell-based, human; settings: HEK-293, up to 100 μM, 24 h
Procedure: as §1

HeLa = experiment: Cell viability assay (MTT); format: cell-based, human; settings: up to 100 μM, 24 h
Procedure: as §1

MDA-MB-231 = experiment: Cell viability assay (MTT); format: cell-based, human; settings: MDA-MB-231, up to 100 μM, 24 h
Procedure: as §1

SRPK1ΔNS3 = settings: quoted for comparison, earlier work on DBS1; read-out: Kd of DBS1 for SRPK1; cited from earlier work
Description: Because DBS1 targets the docking groove of SRPK, we tested the specificity of C-DBS toward the same binding site. We performed fluorescence polarization (FP) assay to examine the direct noncovalent interaction between C-DBS and SRPK1ΔNS3, as well as the docking groove mutant SRPK1ΔNS3_DM that contains alanine substitutions at four docking groove residues—D548, D564, E571, and K615—that are essential for the binding and phosphorylation of the substrate (Fig. 2a)[11],[12],[36].

Compound	cellular uptake (A549 cells; A549, 10 μM FAM-labeled peptide, 24 h, Opti-MEM, confocal fluorescence microscopy)	endo/lysosomal trapping after internalization (A549 cells; A549, LysoTracker Red, 1.5 or 24 h incubation)	cytotoxicity (MTT) (A549)	cytotoxicity (MTT) (HEK-293)	cytotoxicity (MTT) (HeLa)	cytotoxicity (MTT) (MDA-MB-231)	Kd (SRPK1ΔNS3)
CC(=O)N[C@@H](CCCNC(=N)N)C(=O)N[C@@H](CCC(=O)O)C(=O)N[C@@H](CCCNC(=N)N)C(=O)N[C@@H](C)C(=O)N[C@@H](CCCNC(=N)N)C(=O)N[C@H](C(=O)N[C@@H](CCCNC(=N)N)C(=O)N[C@@H](CCCNC(=N)N)C(=O)N[C@@H](CNC(=O)c1ccc(S(=O)(=O)F)cc1)C(=O)N[C@@H](CCCNC(=N)N)C(=O)N[C@@H](C)C(=O)N[C@@H](CCCNC(=N)N)C(=O)N[C@H](C(=O)N[C@@H](CCCNC(=N)N)C(=O)N[C@@H](CCC(=O)O)C(=O)N[C@@H](CCCNC(=N)N)C(=O)N[C@@H](C)C(=O)N[C@@H](CCCNC(=N)N)C(=O)N[C@H](C(=O)N[C@@H](CCCNC(=N)N)C(N)=O)[C@@H](C)O)[C@@H](C)O)[C@@H](C)O [C-DBS] (Ac-RERARTRR[Dap](Benzoyl(4-SO2F))RARTRERARTR-NH2)	readily internalized by the A549 cells	not trapped in endolysosomal compartments after internalization	no cytotoxicity	no cytotoxicity	no cytotoxicity	no cytotoxicity	–
RERARTRRE^9RARTRERARTR [DBS1]	–	–	–	–	–	–	3.2 ± 1.5 µM
